Results from paper PMC5688156, “The natural product carolacton inhibits folate-dependent C1 metabolism by targeting FolD/MTHFD” (Nature Communications, 2017).
Where “and” joins values, the source holds several entries; their conditions need not be identical. Equal entries are not always repeated.

Experiments:
ecFolD = molecular target: T1, ecFolD (Escherichia coli, UniProt P24186); test: ecFolD dehydrogenase (DH) enzyme assay; format: biochemical, E. coli; details: for Ki: carolacton inhibition on DH activity, from apparent KM
T1 construct: His-tag (TEV-cleavable, vector pHis-TEV); made in house; host or cells: E. coli BL21 (DE3)
Procedure: (§1) (6R,S)-5,10-Methylene-5,6,7,8-tetrahydrofolic acid ((6R,S)-5,10-CH2-THF) calcium salt and (6R,S)-5,10-Methenyl-5,6,7,8-tetrahydrofolic acid ((6R,S)-5,10-CH=THF) chloride were purchased from Schircks Laboratories (Bauma, Switzerland) and used as substrates for FolD dehydrogenase and cyclohydrolase enzyme assays, respectively. Only the R-isomer, which accounts for 50% of (6R,S)-5,10-CH2-THF and (6R,S)-5,10-CH=THF, respectively, is used by the enzyme. (6R,S)-5,10-CH2-THF was dissolved in N2-spargeled basic buffer (50 mM Tris-HCl (pH 8.0), 100 mM β-mercaptoethanol) as described by Varshney et al.[25]. (6R,S)-5,10-CH=THF was dissolved in DMSO as a 100 mM stock solution.
Because FolD is a bifunctional enzyme, dehydrogenase and cyclohydrolase activities were determined for FolD enzyme kinetics, respectively. The dehydrogenase activity of FolD was assayed for its substrate 5,10-CH2-THF and cofactor NADP^+ (in the case of MTHFD2, NAD^+ was used as the cofactor) based on monitoring the formation of 5,10-CH=THF, while the cyclohydrolase activity of FolD was determined for its substrate 5,10-CH=THF by monitoring the hydrolysis of […]. The enzyme kinetics for the dehydrogenase activity of all FolDs except hsMTHFD1_DC were determined at 30 °C in 50 mM Tris-HCl (pH 7.5), 30 mM β-mercaptoethanol. The hsMTHFD1_DC dehydrogenase activity was measured in 25 mM MOPS (pH 7.3), 30 mM β-mercaptoethanol at 30 °C. To measure the enzyme kinetic constants for 5,10-CH2-THF, for example in the case of ecFolD, the NADP concentration was fixed at 1 mM and the concentration of 5,10-CH2-THF varied from 5 to 1500 μM (R-isomer). Similarly, to measure the kinetic constants of ecFolD for NADP^+, the concentration of 5,10-CH2-THF (R-isomer) was fixed at 1 mM and the concentration of NADP^+ varied from 10 to 1500 μM. For different FolDs, the varied concentration range of substrates could be different. […] To monitor the formation of 5,10-CH=THF, the absorbance of the reaction mixture was monitored at 350 nm in micro UV cuvettes (BRAND, Essex, Connecticut, USA). The concentration of 5,10-CH=THF produced in the reaction was determined using an extinction co-efficient of 0.0249 μM^−1 cm^−1. […] The consumption of 5,10-CH=THF was measured by recording the absorbance of the reactions at 355 nm using the TECAN Infinite 200 PRO equipped with a monochromator. […] The inhibition constants (K i) of carolacton on FolD were determined by measuring the apparent K m when adding certain amounts of carolacton to the enzyme reactions. […] To compare the inhibition effects of carolacton between the different FolDs, the half maximal inhibitory concentration (IC50) of carolacton on the same amount of enzyme was determined for FolDs involved in this study. […]

spFolD = molecular target: T2, spFolD (Streptococcus pneumoniae serotype 4, UniProt Q97RI9); test: spFolD cyclohydrolase (CYH) enzyme assay; format: biochemical, S. pneumoniae
T2 construct: His-tag (TEV-cleavable, vector pHis-TEV); made in house; host or cells: E. coli BL21 (DE3)
T2 sequence (Q97RI9 whole entry): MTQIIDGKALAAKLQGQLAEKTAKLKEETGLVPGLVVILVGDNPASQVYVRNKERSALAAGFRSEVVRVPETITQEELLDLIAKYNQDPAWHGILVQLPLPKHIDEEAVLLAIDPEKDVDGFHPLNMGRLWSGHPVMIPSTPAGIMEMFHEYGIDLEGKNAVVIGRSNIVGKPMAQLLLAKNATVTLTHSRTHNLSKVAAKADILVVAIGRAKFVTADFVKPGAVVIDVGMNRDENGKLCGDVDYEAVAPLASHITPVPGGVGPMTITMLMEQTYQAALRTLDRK
Procedure: as §1
Because FolD is a bifunctional enzyme, dehydrogenase and cyclohydrolase activities were determined for FolD enzyme kinetics, respectively. The dehydrogenase activity of FolD was assayed for its substrate 5,10-CH2-THF and cofactor NADP^+ (in the case of MTHFD2, NAD^+ was used as the cofactor) based on monitoring the formation of 5,10-CH=THF, while the cyclohydrolase activity of FolD was determined for its substrate 5,10-CH=THF by monitoring the hydrolysis of […]. The enzyme kinetics for the dehydrogenase activity of all FolDs except hsMTHFD1_DC were determined at 30 °C in 50 mM Tris-HCl (pH 7.5), 30 mM β-mercaptoethanol. The hsMTHFD1_DC dehydrogenase activity was measured in 25 mM MOPS (pH 7.3), 30 mM β-mercaptoethanol at 30 °C. […] To monitor the formation of 5,10-CH=THF, the absorbance of the reaction mixture was monitored at 350 nm in micro UV cuvettes (BRAND, Essex, Connecticut, USA). The concentration of 5,10-CH=THF produced in the reaction was determined using an extinction co-efficient of 0.0249 μM^−1 cm^−1. […] The consumption of 5,10-CH=THF was measured by recording the absorbance of the reactions at 355 nm using the TECAN Infinite 200 PRO equipped with a monochromator. […] The inhibition constants (K i) of carolacton on FolD were determined by measuring the apparent K m when adding certain amounts of carolacton to the enzyme reactions. […]

ecFolD ΔK54R55 = molecular target: T3, ecFolD ΔK54R55 (Escherichia coli, UniProt P24186, DEL54-55); test: ecFolD ΔK54R55 mutant dehydrogenase (DH) enzyme assay; format: biochemical, E. coli
T3 construct: His-tag (TEV-cleavable, vector pHis-TEV); made in house; host or cells: E. coli BL21 (DE3)
Procedure: as §1
(§2) Because FolD is a bifunctional enzyme, dehydrogenase and cyclohydrolase activities were determined for FolD enzyme kinetics, respectively. The dehydrogenase activity of FolD was assayed for its substrate 5,10-CH2-THF and cofactor NADP^+ (in the case of MTHFD2, NAD^+ was used as the cofactor) based on monitoring the formation of 5,10-CH=THF, while the cyclohydrolase activity of FolD was determined for its substrate 5,10-CH=THF by monitoring the hydrolysis of […]. The enzyme kinetics for the dehydrogenase activity of all FolDs except hsMTHFD1_DC were determined at 30 °C in 50 mM Tris-HCl (pH 7.5), 30 mM β-mercaptoethanol. […]

KB-V.1 = test: Cytotoxicity screening, KB-V.1 (MTT); format: cell-based, human; details: for EC50: MDR (Pgp-overexpressing) cell line, 5 d treatment, MTT
Procedure: Half maximal effective concentrations (EC50) on human cancer cell lines were determined as described elsewhere. Human cancer cell lines were maintained as recommended by the depositor (German Collection of Microorganisms and Cell Cultures, DSMZ) and were treated for 5 d with carolacton in serial dilution. The viability of adherent cell types, HCT-116 (ACC 581), KB-3.1 (ACC-158) and KB-V.1 (ACC-149) was assessed by the addition of MTT tetrazolium salt and absorbance measurement at 570 nm. Histiocytic lymphoma U-937 cells (ACC-5) were maintained in RPMI 1640 medium and transferred into folate-free medium prior to the assay. Cell viability was determined by measuring alamar blue fluorescence emission at 590 nm. The values were referenced and EC50 values were determined by sigmoidal curve fitting. The cell lines KB-3.1 and KB-V.1 are originally derived from HeLa, whereas the latter is an MDR subclone of KB-3.1. They were used to directly compare the activity of carolacton on an mdr1 overexpressing and a sensitive cell line.

ecFolD K54N = molecular target: T4, ecFolD K54N (Escherichia coli, UniProt P24186, K54N); test: ecFolD K54N mutant dehydrogenase (DH) enzyme assay; format: biochemical, E. coli
T4 construct: His-tag (TEV-cleavable, vector pHis-TEV); made in house; host or cells: E. coli BL21 (DE3)
Procedure: as §1, §2

CO[C@H](CC(=O)O)[C@@H](C)C(=O)[C@H](C)/C=C(\C)[C@H]1OC(=O)[C@H](O)[C@H](O)/C=C/[C@H](C)CCC[C@@H]1C [carolacton]
IC50 (ecFolD): 15.5 nM
Ki (ecFolD; Ki (5,10-CH2-THF), competitive vs substrate 5,10-CH2-THF): 21 nM and 21.3 nM
Ki (ecFolD; Ki (NADP+), competitive vs cofactor NADP+): 11 nM and 10.9 nM
IC80 (ecFolD; read-out: IC80, carolacton inhibition on DH activity): 52.2 nM
IC50 (spFolD; 5 nM enzyme, read-out: IC50, carolacton inhibition on CYH activity): 38.1 nM
IC80 (spFolD; 5 nM enzyme, read-out: IC80, carolacton inhibition on CYH activity): 101 nM
Ki (spFolD; vs 5,10-CH=THF, read-out: Ki (5,10-CH=THF), carolacton inhibition on CYH activity): 38.1 nM
sensitivity of residual DH activity to carolacton (ecFolD ΔK54R55): completely insensitive
EC50 (KB-V.1; Homo sapiens, KB-V1, 120 h): 42000 nM
EC50 (KB-V.1): 41800 ± 14500 nM
Maximum inhibition (KB-V.1; inhibition of cell growth, 5 d): >80%
sensitivity of residual DH activity to carolacton (ecFolD K54N): completely insensitive
